{"source": "paper PMC6658769", "about": "“First-Time-in-Human Study and Prediction of Early Bactericidal Activity for GSK3036656, a Potent Leucyl-tRNA Synthetase Inhibitor for Tuberculosis Treatment” (Antimicrobial Agents and Chemotherapy, 2019)", "key": {"[1]": {"details": "human, in vivo"}, "M. tuberculosis": {"system": "M. tuberculosis", "details": "cited from earlier work"}}, "note": "Like-named read-outs stand apart in the source and are kept apart here."}
{"compound": "NC[C@@H](O)c1c(Cl)ccc(OCCO)c1O", "note": "[GSK3635633]", "values": [{"measurement": "% dose in pooled urine", "setting": "[1]", "result": 6, "unit": "% dose"}]}
{"compound": "COc1nc2ccc(Br)cc2cc1[C@@H](c1ccccc1)[C@@](O)(CCN(C)C)c1cccc2ccccc12", "note": "[bedaquiline]", "values": [{"measurement": "reported average EBA0–14", "setting": "M. tuberculosis; loading doses of 700 mg on day 1 and 500 mg on day 2 and then 400 mg", "result": 0.061}]}
{"compound": "C[C@]1(COc2ccc(N3CCC(Oc4ccc(OC(F)(F)F)cc4)CC3)cc2)Cn2cc([N+](=O)[O-])nc2O1", "note": "[delamanid]", "values": [{"measurement": "reported average EBA0–14", "setting": "M. tuberculosis; 300 mg", "result": 0.065}]}
